Data: ChEMBL document CHEMBL1201862, “PubChem BioAssay data set” (2004)
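Test compounds were applied to cells in 96-well plates for 48 hours at 5 doses. Abbreviation: GI50, concentration required for 50% inhibition of growth.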 The source made the active and inactive calls. No stated cut-off is given here; in the data, active = GI50 up to about 1.1 µM and inactive = higher.

Columns and labels:
Experiment in all cases: NCI tumour cell line growth inhibition, 48 h
DU-145 = tested on: DU-145
U-251 = tested on: U-251
COLO 205 = tested on: COLO 205
OVCAR-3 = tested on: OVCAR-3
A498 = tested on: A498
RPMI-8226 = tested on: RPMI-8226
K562 = tested on: K562
UO-31 = tested on: UO-31
OVCAR-5 = tested on: OVCAR-5
UACC-62 = tested on: UACC-62
SF-295 = tested on: SF-295
PC-3 = tested on: PC-3
SN12C = tested on: SN12C
HL-60 = tested on: HL-60
CAKI-1 = tested on: CAKI-1
HT-29 = tested on: HT-29
A549 = tested on: A549
MCF7 = tested on: MCF7
HCC 2998 = tested on: HCC 2998

Measured: GI50

CC(C)(C)OC(=O)CCC1NC(=O)[C@@H]2Cc3c([nH]c4ccccc34)C(C3CCCCC3)N2C1=O (stereo partly specified)
inactive: DU-145 57.3 µM | U-251 27 µM | COLO 205 17.9 µM | OVCAR-3 26.2 µM | A498 60.5 µM | RPMI-8226 16.4 µM | K562 32.4 µM | UO-31 41.5 µM | OVCAR-5 53.2 µM | UACC-62 45.3 µM | SF-295 23.1 µM | PC-3 18.8 µM | SN12C 22.4 µM | HL-60 16.6 µM | CAKI-1 37.1 µM | HT-29 18.6 µM | A549 26.4 µM | MCF7 26.7 µM

CC(=N/NC(N)=S)/C(C)=N/NC(N)=S
inactive: DU-145 > 100 µM | COLO 205 > 100 µM | OVCAR-3 > 100 µM | RPMI-8226 > 100 µM | K562 > 100 µM | UO-31 > 100 µM | OVCAR-5 > 100 µM | UACC-62 > 100 µM | PC-3 > 100 µM | SN12C > 100 µM | HL-60 > 100 µM | HCC 2998 > 100 µM | HT-29 > 100 µM | A549 > 100 µM | MCF7 > 100 µM

COC(=O)C1CCOC(C)N1C(=O)OC(C)(C)C (stereo unspecified)
inactive: DU-145 > 100 µM | U-251 > 100 µM | COLO 205 > 100 µM | OVCAR-3 > 100 µM | RPMI-8226 > 100 µM | K562 > 100 µM | UO-31 > 100 µM | OVCAR-5 > 100 µM | UACC-62 > 100 µM | SF-295 > 100 µM | PC-3 > 100 µM | SN12C > 100 µM | HL-60 > 100 µM | CAKI-1 > 100 µM | HCC 2998 > 100 µM | HT-29 > 100 µM | A549 > 100 µM | MCF7 > 100 µM

COc1cc(S(=O)(=O)Nc2ccc(-c3csc(N4C(=O)C(C)SC4c4ccccc4)n3)cc2)ccc1Cl (stereo unspecified)
inactive: DU-145 40.2 µM | COLO 205 27.2 µM | OVCAR-3 > 100 µM | A498 58.6 µM | RPMI-8226 38.4 µM | K562 30.6 µM | UO-31 > 100 µM | OVCAR-5 > 100 µM | UACC-62 21.4 µM | PC-3 19.9 µM | SN12C 94.2 µM | HL-60 21.1 µM | CAKI-1 > 100 µM | HT-29 11.8 µM | A549 > 100 µM | MCF7 17.9 µM

Nc1ccc2nc3n(c(=O)c2c1)CCCCC3
inactive: DU-145 > 100 µM | U-251 > 100 µM | COLO 205 > 100 µM | OVCAR-3 > 100 µM | A498 > 100 µM | RPMI-8226 > 100 µM | K562 > 100 µM | UO-31 > 100 µM | OVCAR-5 > 100 µM | UACC-62 > 100 µM | SF-295 > 100 µM | PC-3 > 100 µM | SN12C > 100 µM | HL-60 > 100 µM | CAKI-1 > 100 µM | HT-29 > 100 µM | A549 > 100 µM | MCF7 > 100 µM

CN1CCN(c2n[nH]c(=O)c3c2nnn3Cc2ccccc2)CC1
inactive: DU-145 > 100 µM | U-251 > 100 µM | COLO 205 > 100 µM | OVCAR-3 > 100 µM | RPMI-8226 > 100 µM | K562 > 100 µM | UO-31 71.6 µM | SF-295 > 100 µM | PC-3 5.89 µM | SN12C 15.5 µM | HL-60 > 100 µM | CAKI-1 > 100 µM | HCC 2998 > 100 µM | HT-29 38 µM | A549 > 100 µM | MCF7 > 100 µM

COC(=O)C1CCCCCCCCCCC12SCCCS2 (stereo unspecified)
inactive: DU-145 16.7 µM | U-251 17.3 µM | COLO 205 18.6 µM | OVCAR-3 18.4 µM | A498 29.5 µM | K562 24.5 µM | UO-31 18.9 µM | OVCAR-5 16.8 µM | UACC-62 25.6 µM | SF-295 16.5 µM | PC-3 17.5 µM | SN12C 16.9 µM | CAKI-1 26.3 µM | HCC 2998 20.9 µM | HT-29 32.8 µM | A549 17.4 µM | MCF7 43.9 µM

N#CCCC(C=O)(CCC#N)CCC#N
inactive: DU-145 > 100 µM | U-251 > 100 µM | COLO 205 > 100 µM | OVCAR-3 > 100 µM | A498 > 100 µM | K562 > 100 µM | UO-31 > 100 µM | OVCAR-5 > 100 µM | UACC-62 > 100 µM | SF-295 > 100 µM | PC-3 > 100 µM | SN12C > 100 µM | HL-60 > 100 µM | CAKI-1 > 100 µM | HCC 2998 > 100 µM | HT-29 > 100 µM | A549 > 100 µM | MCF7 > 100 µM

Clc1ccc(C2=NCON=C2c2ccc(Cl)cc2)cc1
inactive: DU-145 30.5 µM | U-251 18.3 µM | COLO 205 16.3 µM | OVCAR-3 15.8 µM | RPMI-8226 16.8 µM | K562 23.9 µM | UO-31 15.7 µM | OVCAR-5 20.1 µM | UACC-62 18.9 µM | SF-295 16.6 µM | PC-3 18.2 µM | SN12C 19 µM | HL-60 14.5 µM | CAKI-1 21.6 µM | HCC 2998 15.2 µM | HT-29 13.6 µM | A549 31.3 µM | MCF7 25.6 µM

CSc1ccc(/C=C2\N=C(c3ccccc3)N(c3nc4cc(C)c(C)cc4s3)C2=O)cc1
inactive: DU-145 49.7 µM | U-251 19.2 µM | COLO 205 35.2 µM | OVCAR-3 22.8 µM | RPMI-8226 52.1 µM | K562 43.4 µM | UO-31 28.9 µM | OVCAR-5 26.2 µM | UACC-62 28.1 µM | SF-295 34.1 µM | PC-3 22.4 µM | SN12C 27 µM | HL-60 20.9 µM | CAKI-1 53 µM | HCC 2998 32.1 µM | HT-29 22.2 µM | A549 30.1 µM | MCF7 15.3 µM

C=CC(=C)CCC(Br)C(C)(C)Br (stereo unspecified)
inactive: DU-145 > 100 µM | U-251 > 100 µM | COLO 205 74 µM | OVCAR-3 > 100 µM | RPMI-8226 88.1 µM | K562 40.3 µM | UO-31 > 100 µM | OVCAR-5 > 100 µM | UACC-62 > 100 µM | SF-295 > 100 µM | PC-3 > 100 µM | SN12C > 100 µM | HL-60 17.1 µM | HCC 2998 > 100 µM | HT-29 > 100 µM | A549 > 100 µM | MCF7 35.1 µM

CCCCCCCCC/C=C1\CC(CO)(COC(=O)C2CCCCC2)OC1=O (stereo unspecified)
inactive: DU-145 7.6 µM | U-251 19.7 µM | COLO 205 13.6 µM | OVCAR-3 18.6 µM | A498 22.1 µM | K562 11 µM | UO-31 20.1 µM | OVCAR-5 17.8 µM | UACC-62 21.5 µM | SF-295 15.9 µM | PC-3 17 µM | SN12C 16.9 µM | CAKI-1 22.9 µM | HCC 2998 23.7 µM | HT-29 19.7 µM | A549 19.4 µM | MCF7 23.2 µM
